Assay results from patent publication US4621090A, “Antifungal compositions” (Toyo Soda Manufacturing Co., Ltd., priority 1983, dated 1986).
Converted amounts (≈) assume the structure as drawn. Where two headings read alike, the source gives them in different places.

Assays:
[1] = tested on: Fusarium pedrosoi MTU-22009; assay: Growth inhibition test; type: cell-based; conditions: MTU22009, 168 h, after 7 days cultivation at 27° C., read-out: Minimum inhibitory concentration
[2] = tested on: Epidermophyton floccosum MTU-21007; assay: Growth inhibition test; type: cell-based; conditions: MTU21007, 336 h, read-out: Minimum inhibitory concentration
[3] = tested on: Phialophora verrucosa MTU-23001; assay: Growth inhibition test; type: cell-based; conditions: read-out: Minimum inhibitory concentration
[4] = tested on: Aspergillus fumigatus MTU-06002; assay: Growth inhibition test; type: cell-based; conditions: MTU06002, 168 h, read-out: Minimum inhibitory concentration
[5] = tested on: Microsporum canis MTU-20010; assay: Growth inhibition test; type: cell-based; conditions: read-out: Minimum inhibitory concentration
[6] = tested on: Aspergillus niger MTU-06051; assay: Growth inhibition test; type: cell-based; conditions: read-out: Minimum inhibitory concentration
[7] = tested on: Trichophyton mentagraphytes MTU-19024; assay: Minimum inhibitory concentration, anti-Trichophyton mentagraphytes activity test, strain MTU-19024; type: cell-based; conditions: Trichophyton, MTU19024, Sabouraud's dextrose agar, 27° C., a week
Experimental: (§1) The activity was tested by the 10 time-step dilution test, using the Sabouraud's dextrose agar culture medium (2% dextrose, 1% pepton and 1.5% agar; pH 6.5±). A platinum loopful (about 10 μl) spore suspension (prepared from a reserved strain of Trichlophyton mentagraphytes and containing 1×10^6 cells/ml) was applied in the form of drawn lines on a plate of a culture medium containing the active ingredients. The culture medium plate was kept at 27° C. for a week and then visually observed to see if any colonies had formed. The minimum inhibitory concentration was defined as the minimum concentration with which formation of distinct colonies on the culture medium plate was not observed.

[8] = tested on: Blastomyces dermatitidis MTU-17009; assay: Growth inhibition test; type: cell-based; conditions: MTU17009, 336 h, read-out: Minimum inhibitory concentration
ICR mice [9] = assay: Acute toxicity test using ICR mice; type: in vivo
Experimental: The acute toxicity was tested by applying active ingredients of the antifungal compositions of this invention as shown in Table 4 to ICR mice (male, age-5 weeks, 25 g ±weight, 5 mice in each group). Observation continued for 3 more weeks starting from the last administration.

ICR mice [10] = assay: Skin irritation test using ICR mice; type: in vivo; conditions: Cutaneous, 1% direct application once a day for 14 consecutive days
[11] = tested on: Histoplasma capsulatum MTU-16001; assay: microbe, parasite or virus in culture; type: cell-based; conditions: MTU16001, 336 h, read-out: Minimum inhibitory concentration
[12] = tested on: Trichophyton mentagraphytes; assay: Medical treatment of guinea pigs experimentally infected with Trichophyton mentagraphytes; conditions: 1% emulsion once a day; for Scope of symptoms (0-4): mean of 6 guinea pigs; for Reversed cultivation: skin cut into 10 pieces, cultivated 14 days at 27° C.
[13] = tested on: Trichophyton violaceum MTU-19021; assay: Growth inhibition test; type: cell-based; conditions: read-out: Minimum inhibitory concentration
[14] = tested on: Microsporum gypseum MTU-20005; assay: Growth inhibition test; type: cell-based; conditions: Nannizzia gypsea, read-out: Minimum inhibitory concentration
[15] = tested on: Fonsecaea compactum MTU-22023; assay: Growth inhibition test; type: cell-based; conditions: Fonsecaea compacta, read-out: Minimum inhibitory concentration
[16] = tested on: Trichophyton mentagraphytes MTU-19031; assay: Minimum inhibitory concentration, anti-Trichophyton mentagraphytes activity test, strain MTU-19031; type: cell-based; conditions: Trichophyton, MTU19031, Sabouraud's dextrose agar, 27° C., a week
Experimental: as §1

[17] = tested on: Cryptococcus neoformans MTU-13002; assay: Growth inhibition test; type: cell-based; conditions: MTU13002, 48 h, read-out: Minimum inhibitory concentration
[18] = after 14 days cultivation at 27° C.
[19] = Intraperitoneal, 100 mg/kg once a day for 6 consecutive days
[20] = Intraperitoneal, 500 mg/kg once
[21] = Oral, 500 mg/kg once a day for 6 consecutive days

Q: Which results are given for `COc1cccc(N(C)C(=S)Oc2ccc3ccccc3c2)n1` [compound 7, O--2-Naphthyl N--methyl-N--(6-methoxy-2-pyridyl)thiocarbamate]?
A: MIC [1]: 0.5 µg/mL (≈ 1.54 µM); MIC [2, 18]: 0.05 µg/mL (≈ 0.154 µM); MIC ([3]; MTU23001, 168 h, after 7 days cultivation at 27° C.): 0.5 µg/mL (≈ 1.54 µM); MIC ([3]; MTU23001, 336 h, after 14 days cultivation at 27° C.): 0.5 µg/mL (≈ 1.54 µM); MIC ([4]; after 7 days cultivation at 27° C.): 0.5 µg/mL (≈ 1.54 µM); MIC ([5]; MTU20010, 168 h, after 7 days cultivation at 27° C.): 0.05 µg/mL (≈ 0.154 µM); MIC ([5]; MTU20010, 336 h, after 14 days cultivation at 27° C.): 0.05 µg/mL (≈ 0.154 µM); MIC ([6]; MTU06051, 168 h, after 7 days cultivation at 27° C.): 0.05 µg/mL (≈ 0.154 µM); MIC ([6]; MTU06051, 336 h, after 14 days cultivation at 27° C.): 0.05 µg/mL (≈ 0.154 µM); MIC [7]: 0.05 µg/mL (≈ 0.154 µM); MIC [8, 18]: 0.5 µg/mL (≈ 1.54 µM); Number of deaths (ICR mice [9]; [19]): 0; Number of symptomatic weight decrease (ICR mice [9]; [19]): 0; Number of deaths (ICR mice [9]; [20]): 0; Number of symptomatic weight decrease (ICR mice [9]; [20]): 0; Number of deaths (ICR mice [9]; [21]): 0; Number of symptomatic weight decrease (ICR mice [9]; [21]): 0; Number of skin irritation symptoms (ICR mice [10]): 0; MIC [11]: 0.5 µg/mL (≈ 1.54 µM); Scope of symptoms (0-4) ([12]; 5 days after the infection): 0; Scope of symptoms (0-4) ([12]; 9 days after the infection): 1.33; Scope of symptoms (0-4) ([12]; 13 days after the infection): 1.66; Scope of symptoms (0-4) ([12]; 17 days after the infection): 0.66; Scope of symptoms (0-4) ([12]; 21 days after the infection): 0.33; Reversed cultivation [12]: 1/60; MIC ([13]; MTU19021, 168 h, after 7 days cultivation at 27° C.): 0.05 µg/mL (≈ 0.154 µM); MIC ([13]; MTU19021, 336 h, after 14 days cultivation at 27° C.): 0.05 µg/mL (≈ 0.154 µM); MIC ([14]; MTU20005, 168 h, after 7 days cultivation at 27° C.): 0.05 µg/mL (≈ 0.154 µM); MIC ([14]; MTU20005, 336 h, after 14 days cultivation at 27° C.): 0.05 µg/mL (≈ 0.154 µM); MIC ([15]; MTU22023, 168 h, after 7 days cultivation at 27° C.): 0.5 µg/mL (≈ 1.54 µM); MIC ([15]; MTU22023, 336 h, after 14 days cultivation at 27° C.): 0.5 µg/mL (≈ 1.54 µM); MIC [16]: 0.05 µg/mL (≈ 0.154 µM); MIC ([17]; after 2 days cultivation at 27° C.): 0.05 µg/mL (≈ 0.154 µM)

Q: Which MIC [2] does the source give for `COc1cccc(N(C)C(=S)Oc2ccc3c(c2)CCCC3)n1` [compound 11, O--5,6,7,8-Tetrahydro-2-naphthyl N--N--(6-methoxy-2-pyridyl)-N--methylthiocarbamate] here?
A: 0.05 µg/mL (≈ 0.152 µM)

Q: And the MIC ([3]; MTU23001, 168 h)?
A: 0.5 µg/mL (≈ 1.52 µM)

Q: What about the MIC ([3]; MTU23001, 336 h) of the same compound?
A: 0.5 µg/mL (≈ 1.52 µM)

Q: And the MIC [4]?
A: 0.5 µg/mL (≈ 1.52 µM)

Q: What about the MIC ([5]; MTU20010, 168 h) of the same compound?
A: 0.05 µg/mL (≈ 0.152 µM)

Q: What about the MIC ([5]; MTU20010, 336 h) of the same compound?
A: 0.05 µg/mL (≈ 0.152 µM)

Q: What about the MIC ([6]; MTU06051, 168 h) of the same compound?
A: 0.05 µg/mL (≈ 0.152 µM)

Q: And the MIC ([6]; MTU06051, 336 h)?
A: 0.05 µg/mL (≈ 0.152 µM)

Q: And the MIC [7]?
A: 0.05 µg/mL (≈ 0.152 µM)

Q: What about the MIC [8] of the same compound?
A: 0.5 µg/mL (≈ 1.52 µM)

Q: What about the Number of deaths (ICR mice [9]; [19]) of the same compound?
A: 0

Q: What about the “Number of symptomatic weight decrease” value (ICR mice [9]; [19]) of the same compound?
A: 0

Q: What about the Number of deaths (ICR mice [9]; [20]) of the same compound?
A: 0

Q: What about the “Number of symptomatic weight decrease” value (ICR mice [9]; [20]) of the same compound?
A: 0

Q: And the Number of deaths (ICR mice [9]; [21])?
A: 0

Q: What about the “Number of symptomatic weight decrease” value (ICR mice [9]; [21]) of the same compound?
A: 0

Q: And the “Number of skin irritation symptoms” value (ICR mice [10])?
A: 0

Q: What about the MIC [11] of the same compound?
A: 0.5 µg/mL (≈ 1.52 µM)

Q: What about the “Scope of symptoms (0-4)” value ([12]; 5 days after the infection) of the same compound?
A: 0.66

Q: What about the “Scope of symptoms (0-4)” value ([12]; 9 days after the infection) of the same compound?
A: 2.0

Q: What about the “Scope of symptoms (0-4)” value ([12]; 13 days after the infection) of the same compound?
A: 2.0

Q: What about the “Scope of symptoms (0-4)” value ([12]; 17 days after the infection) of the same compound?
A: 0

Q: And the “Scope of symptoms (0-4)” value ([12]; 21 days after the infection)?
A: 0

Q: What about the Reversed cultivation [12] of the same compound?
A: 1/60

Q: What about the MIC ([13]; MTU19021, 168 h) of the same compound?
A: 0.05 µg/mL (≈ 0.152 µM)

Q: And the MIC ([13]; MTU19021, 336 h)?
A: 0.05 µg/mL (≈ 0.152 µM)

Q: What about the MIC ([14]; MTU20005, 168 h) of the same compound?
A: 0.5 µg/mL (≈ 1.52 µM)

Q: And the MIC ([14]; MTU20005, 336 h)?
A: 0.05 µg/mL (≈ 0.152 µM)

Q: And the MIC ([15]; MTU22023, 168 h)?
A: 0.5 µg/mL (≈ 1.52 µM)

Q: What about the MIC ([15]; MTU22023, 336 h) of the same compound?
A: 0.5 µg/mL (≈ 1.52 µM)

Q: And the MIC [16]?
A: 0.05 µg/mL (≈ 0.152 µM)

Q: What about the MIC [17] of the same compound?
A: 0.5 µg/mL (≈ 1.52 µM)
